Source: patent publication US10213415B2, “Compounds as opioid receptor modulators” (JANSSEN PHARMACEUTICA NV, priority 2004, dated 2019)

Assays:
mu opioid receptor = target: T1, mu opioid receptor (Rattus norvegicus, UniProt P33535); assay: Rat Brain Mu Opioid Receptor Binding Assay (and Version 2a, [3H]DAMGO); settings: rat forebrain membranes, margin of error 10-20%, read-out: r Ki μ
T1 construct: from tissue; host or cells: forebrain of male Wistar rats
In short: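 Rat forebrain membranes from male Wistar rats in 50 mM Tris-HCl pH 7.4 with 5 mM MgCl2 incubated with 0.8 nM [3H]DAMGO for 2.5 h at 25° C., then filtered and counted. Data given as % inhibition of specific binding at single concentrations or as Ki from concentration series.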

delta opioid receptor = target: T2, delta opioid receptor (Rattus norvegicus, UniProt P33533); assay: Rat Brain Delta Opioid Receptor Binding Assay-Version 1a ([3H]naltrindole); settings: rat forebrain membranes, 0.1 nM [3H]naltrindole; margin of error 10-20%; read-out: r Ki δ Ver. 1a
T2 construct: from tissue; host or cells: forebrain of male Wistar rats
Protocol: Male, Wistar rats (150-250 g, VAF, Charles River, Kingston, N.Y.) were killed by cervical dislocation, and their brains removed and placed immediately in ice-cold Tris HCl buffer (50 mM, pH 7.4). The forebrains were separated from the remainder of the brain by a coronal transection, beginning dorsally at the colliculi and passing ventrally through the midbrain-pontine junction. After dissection, the forebrains were homogenized in Tris buffer in a Teflon®-glass homogenizer. The homogenate was diluted to a concentration of 1 g of forebrain tissue per 80 mL Tris and centrifuged at 39,000×g for 10 min. The pellet was resuspended in the same volume of Tris buffer containing 5 mM MgCl2 with several brief pulses from a Polytron homogenizer. This particulate preparation was used for the delta opioid binding assay. Following incubation with 0.1 nM of the delta selective ligand [^3H]naltrindole at 25° C. for 2.5 h in a 96-well plate with total 1 mL, the plate contents were filtered through Wallac filtermat B sheets on a Tomtec 96-well harvester. The filters were rinsed three times with 2 mL of 10 mM HEPES (pH 7.4), and dried in a microwave oven. To each sample area, Betaplate Scint scintillation fluid (LKB) was added and the resulting radioactivity quantified on a LKB (Wallac) 1205 BetaPlate liquid scintillation counter. Kd and Ki values were calculated using the GraphPad PRISM data analysis program.

human mu opioid receptor = target: T3, human mu opioid receptor (Homo sapiens, UniProt P35372); assay: Human Mu Opioid Receptor Binding Assay (CHO membranes, 3H-Damgo); settings: read-out: hKi μ
T3 construct: purchased Perkin Elmer RBHOMM400UA; host or cells: Chinese Hamster Ovary cells (recombinant expression)
In short: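 Membranes from CHO cells expressing human mu opioid receptor, 300 μg/mL, in 50 mM Tris pH 7.5, 5 mM MgCl2. Incubated with compound and ³H-Damgo (3.6 nM before mixing) for 2 h at room temperature, filtered, counted by scintillation. Nonspecific binding with 1 μM unlabelled Damgo.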

T2 sequence (P33533 whole entry): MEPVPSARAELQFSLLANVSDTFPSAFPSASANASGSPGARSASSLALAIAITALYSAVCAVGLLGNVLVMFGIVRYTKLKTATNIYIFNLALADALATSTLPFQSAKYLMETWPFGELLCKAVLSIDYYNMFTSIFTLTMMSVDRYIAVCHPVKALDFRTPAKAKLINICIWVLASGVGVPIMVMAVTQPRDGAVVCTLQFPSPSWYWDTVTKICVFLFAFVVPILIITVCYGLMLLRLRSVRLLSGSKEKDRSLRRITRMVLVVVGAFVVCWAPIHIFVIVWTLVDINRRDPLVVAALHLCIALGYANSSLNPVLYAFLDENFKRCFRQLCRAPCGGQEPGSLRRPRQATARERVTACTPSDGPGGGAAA
T1 sequence (P33535 whole entry): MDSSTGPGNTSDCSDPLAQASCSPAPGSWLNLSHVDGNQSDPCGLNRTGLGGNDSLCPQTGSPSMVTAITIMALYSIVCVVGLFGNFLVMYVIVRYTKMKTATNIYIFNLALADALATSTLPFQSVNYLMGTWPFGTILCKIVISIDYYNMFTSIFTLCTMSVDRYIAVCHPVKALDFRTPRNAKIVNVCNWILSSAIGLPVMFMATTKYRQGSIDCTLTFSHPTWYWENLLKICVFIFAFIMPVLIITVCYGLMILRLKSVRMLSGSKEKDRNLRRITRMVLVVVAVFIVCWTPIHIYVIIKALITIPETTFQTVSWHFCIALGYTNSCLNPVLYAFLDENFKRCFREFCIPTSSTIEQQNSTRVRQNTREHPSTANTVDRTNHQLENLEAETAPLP
T3 sequence (P35372 whole entry): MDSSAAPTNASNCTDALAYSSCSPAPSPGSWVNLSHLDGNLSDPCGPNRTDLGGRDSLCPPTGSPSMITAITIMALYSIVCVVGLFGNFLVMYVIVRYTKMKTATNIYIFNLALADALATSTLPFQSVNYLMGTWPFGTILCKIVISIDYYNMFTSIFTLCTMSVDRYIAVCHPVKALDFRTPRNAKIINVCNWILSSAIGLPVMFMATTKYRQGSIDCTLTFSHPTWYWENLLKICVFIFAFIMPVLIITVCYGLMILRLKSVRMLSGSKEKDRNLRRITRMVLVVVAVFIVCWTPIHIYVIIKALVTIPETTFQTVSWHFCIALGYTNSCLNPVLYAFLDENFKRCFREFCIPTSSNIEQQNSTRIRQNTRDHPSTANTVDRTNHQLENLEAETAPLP

## COc1ccc(CN(C(=O)[C@@H](N)Cc2c(C)cc(O)cc2C)[C@@H](C)c2nc(-c3ccccc3)c[nH]2)cc1-c1nnn[nH]1 [Cpd 307]
Mu opioid receptor
  Ki: 0.4 nM
Delta opioid receptor
  Ki: 0.07 nM

## C[C@@H](c1nc(-c2ccccc2)c[nH]1)N(Cc1ccc(C(=O)O)o1)C(=O)[C@@H](N)Cc1ccc(C(N)=O)cc1 [Cpd 304]
Human mu opioid receptor
  Ki: 41 nM
Mu opioid receptor
  Ki: 161 nM
Delta opioid receptor
  Ki: 119 nM

## COc1ccc(CN(C(=O)[C@@H](N)Cc2c(C)cc(O)cc2C)[C@@H](C)c2nc(-c3ccccc3)c[nH]2)cc1C(=O)Nc1ccc(C(=O)O)cc1 [Cpd 308]
Mu opioid receptor
  Ki: 1.2 nM
Delta opioid receptor
  Ki: 0.48 nM

## COc1ccc(CN(C(=O)[C@@H](N)Cc2c(C)cc(O)cc2C)[C@@H](C)c2nc(-c3ccccc3)c[nH]2)cc1C(=O)Nc1cccc(C(=O)O)c1 [Cpd 306]
Mu opioid receptor
  Ki: 0.9 nM
Delta opioid receptor
  Ki: 0.18 nM

## COc1ccc(CN(C(=O)[C@@H](N)Cc2c(C)cc(O)cc2C)[C@@H](C)c2nc(-c3ccccc3)c[nH]2)cc1C(=O)Nc1ccccc1 [Cpd 305]
Mu opioid receptor
  Ki: 0.2 nM
Delta opioid receptor
  Ki: 1.24 nM
